# According to patent US12116370B2, “Condensed heterocyclic compound having a bridgehead nitrogen atom or salt thereof, agricultural or horticultural insecticide comprising the compound, and method for using the insecticide” (Nihon Nohyaku Co., Ltd., priority 2019, dated 2024):
# What was measured:
# Format in all cases: in vivo
# [1] = system: L1 stage larvae of H. contortus; assay: Larval motility assay on Haemonchus contortus; details: 96 h, 4 days, relative to DMSO only, read-out: percent motility inhibition
# Procedure: Dimethyl sulfoxide (DMSO) diluted solutions of various compounds of the present invention were added at the final concentration of 50 ppm to the wells of a 96-well plate containing a predetermined conditioned medium. Twenty L1 stage larvae of H. contortus were introduced into each well of the 96-well plate. The plate was allowed to stand for 4 days, and then larval motility was examined. The percent motility inhibition in the wells of each treatment was calculated relative to the wells of treatment with DMSO only.
# [2] = system: L1 stage larvae of D. immitis; assay: Larval motility assay on Dirofilaria immitis; details: 72 h, 3 days, relative to DMSO only, read-out: percent motility inhibition
# Procedure: Five hundred L1 stage larvae of D. immitis were diluted in a predetermined conditioned medium and introduced into each well of a 96-well plate. DMSO diluted solutions of various compounds of the present invention were added at the final concentration of 50 ppm to the wells of the 96-well plate. The plate was allowed to stand for 3 days, and then larval motility was examined. The percent motility inhibition in the wells of each treatment was calculated relative to the wells of treatment with DMSO only.
# [3] = system: Laodelphax striatellus; assay: Insecticidal test on Laodelphax striatellus; details: in Oryza sativa, 192 h, read-out: insecticidal efficacy (corrected mortality rate) activity level
# Source text: The condensed heterocyclic compounds having a bridgehead nitrogen atom represented by the general formula (1) of the present invention or salts thereof were separately dispersed in water and diluted to 500 ppm. Rice plant seedlings (variety: Nihonbare) were dipped in the agrochemical dispersions for 30 seconds. After air-dried, each seedling was put into a separate glass test tube and inoculated with ten 3rd-instar larvae of L. striatellus, and then the glass test tubes were capped with cotton plugs. At 8 days after the inoculation, the numbers of surviving larvae and dead larvae of L. striatellus were counted, the corrected mortality rate was calculated according to the formula shown below, and the insecticidal efficacy was evaluated according to the criteria of Test Example 1.
# [4] = system: adults of Ctenocephalides felis; assay: Assay for oral parasiticidal activity against adults of Ctenocephalides felis; details: read-out: mortality rate
# Procedure: Newly-emerged adults of C. felis were placed into test cages (10 adults per test cage). DMSO diluted solutions of various compounds of the present invention were added to aliquots of bovine blood at the final concentration of 50 ppm and orally administered to the adults of C. felis using a feeder. The mortality rate was examined on the following day. Aberrant adults were regarded as the dead.
# [5] = system: Plutella xylostella; assay: Insecticidal test on Plutella xylostella; details: in Brassica rapa, 144 h, read-out: insecticidal efficacy (mortality rate) activity level
# Source text: Adults of P. xylostella were released onto Chinese cabbage seedlings and allowed to lay eggs thereon. At 2 days after the release of the adults, the Chinese cabbage seedlings with laid eggs were dipped for about 30 seconds in agrochemical formulations diluted to 500 ppm, each of which contained a different kind of condensed heterocyclic compound having a bridgehead nitrogen atom represented by the general formula (1) of the present invention as an active ingredient. After air-dried, the seedlings were kept in a thermostatic chamber at 25° C. At 6 days after the dip treatment, the number of hatched larvae per plot was counted, the mortality rate of P. xylostella was calculated according to the formula shown below, and the insecticidal efficacy was evaluated according to the criteria of Test Example 1. This test was conducted in triplicate using 10 adults of P. xylostella per plot.
structure (smiles),measurement,setting,value
CCS(=O)(=O)c1cc(/C=N/OCC(F)F)cnc1-c1nc2cc(C(F)(F)F)ccn2n1 [Compound 1-7],inhibition at 50 ppm,[1],≥ 50%
same,inhibition at 50 ppm,[2],≥ 50%
same,mortality at 500 ppm,[3],100%
same,mortality at 50 ppm,[4],≥ 50%
same,mortality at 500 ppm,[5],100%
"CCS(=O)(=O)c1ccc(/C=N/OCC(F)(F)F)nc1-c1nc2cc(C(F)(F)C(F)(F)F)ncn2n1 [Compound 2-42, 5-ethylsulfonyl-6-(7-pentafluoroethyl-[1,2,4]triazolo[1,5-c]pyridin-2-yl)picolinaldehyde O-(2,2,2-trifluoroethyl)oxime]",mortality at 500 ppm,[3],100%
same,mortality at 500 ppm,[5],100%
"CCS(=O)(=O)c1cc(/C(=N/OCCSC)OC)cnc1-c1nc2cc(C(F)(F)F)ccn2n1 [Compound 3-1, methyl 5-ethylsulfonyl-N-(2-methylthioethoxy)-6-(7-(trifluoromethyl)-[1,2,4]triazolo[1,5-a]pyridin-2-yl)nicotinimidate]",mortality at 500 ppm,[3],100%
same,mortality at 500 ppm,[5],100%
"CCS(=O)(=O)c1cc(/C(Br)=N/OCCSC)cnc1-c1nc2cc(C(F)(F)F)ccn2n1 [Compound 3-19, 5-ethylsulfonyl-N-(2-methylthioethoxy)-6-(7-trifluoromethyl-[1,2,4]triazolo[1,5-a]pyridin-2-yl)nicotinimidoyl bromide]",mortality at 500 ppm,[3],100%
same,mortality at 500 ppm,[5],100%
CCS(=O)(=O)c1cc(/C(=N/OCCSC)C2CC2)cnc1-c1nc2cc(C(F)(F)F)ccn2n1 [Compound 3-28],mortality at 500 ppm,[3],100%
same,mortality at 500 ppm,[5],100%
"CCS(=O)(=O)c1cc(/C(=N/OCCSC)c2ccccc2)cnc1-c1nc2cc(C(F)(F)F)ccn2n1 [Compound 3-46, (5-ethylsulfonyl-6-(7-trifluoromethyl-[1,2,4]triazolo[1,5-a]pyridin-2-yl)pyridin-3-yl)phenylmethanone O-(2-methylthioethyl)oxime]",mortality at 500 ppm,[3],100%
same,mortality at 500 ppm,[5],100%
